# In US20260232682A1, “GSPT1 DEGRADER COMPOUNDS” (Captor Therapeutics S.A., priority 2023, published 2026):
# Columns and labels:
# [1] = target: CRBN/DDB1 protein complex (Homo sapiens, UniProt Q96SW2); assay: CRBN displacement TR-FRET assay; conditions: Thalidomide-Red tracer, 6×His-CRBN/DDB1; read-out: CRBN binding Ki
# Method: CRBN/DDB1 protein complex was mixed with Thalidomide-Red and a compound to be tested (the “test compound”). The test solution contained PPI Europium detection buffer, 1 mM DTT, 6.8 nM Thalidomide-Red (the tracer), 5 nM 6×His-CRBN/DDB1 protein, 0.5 nM Anti-6× His-Eu cryptate, 1% DMSO. The test solution was added to a 384-well assay plate.
# The plate was spun-down (1 min, 1000 rpm, 22° C.) and then shaken using a VibroTurbulator for 30 sec at room temperature (20-25° C.), with the frequency set to level 10. The assay plate with protein and the tracer was incubated for 180 min at room temperature (20-25° C.) prior to read-out with a plate reader. The read-out was performed with plate reader (Pherastar, BMG Labtech) in time resolved fluorescence mode. Filter settings: TR 337 665 620.
# The CRBN displacement TR-FRET experiment was carried out with various concentrations of the test compounds in order to measure Ki values.
# The Ki values of competitive inhibitors were calculated using the equation based on the IC50 values of relationship between compound concentration and measured […], the Kd value of the Thalidomide-Red and CRBN/DDB1 complex, and the concentrations of the protein and the tracer in the displacement assay (as described by Cheng and Prusoff, Biochem Pharmacol 1973; 22:3099-3108).
# [2] = target: T1, [SALL4 ZF2]-[compound]-[CRBN/DDB1] ternary complex (Homo sapiens, UniProt Q96SW2+Q9UJQ4); assay: AlphaLISA assay for off-target recruitment detection, SALL4 ZF2; assay type: binding; conditions: 1 μM compound; normalized to Lenalidomide; read-out: Normalized ternary complex response, SALL4 ZF2
# T1 construct: SALL4 ZF2
# T1 sequence (Q9UJQ4 410-432 limits assumed): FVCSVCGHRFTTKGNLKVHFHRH
# T1 sequence (Q96SW2 whole entry): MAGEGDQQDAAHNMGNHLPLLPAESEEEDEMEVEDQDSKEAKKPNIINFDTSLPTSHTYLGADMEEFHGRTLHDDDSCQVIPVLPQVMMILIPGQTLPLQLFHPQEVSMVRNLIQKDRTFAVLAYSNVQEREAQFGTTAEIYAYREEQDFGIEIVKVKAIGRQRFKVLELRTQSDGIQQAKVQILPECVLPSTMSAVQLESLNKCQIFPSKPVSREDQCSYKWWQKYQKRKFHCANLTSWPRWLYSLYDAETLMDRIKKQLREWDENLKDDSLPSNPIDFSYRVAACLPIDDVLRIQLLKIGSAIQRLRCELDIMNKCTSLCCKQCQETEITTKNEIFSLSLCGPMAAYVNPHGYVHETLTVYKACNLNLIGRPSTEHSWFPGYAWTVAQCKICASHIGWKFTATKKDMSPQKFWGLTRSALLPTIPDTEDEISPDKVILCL
# T1 sequence (Q16531 whole entry partner): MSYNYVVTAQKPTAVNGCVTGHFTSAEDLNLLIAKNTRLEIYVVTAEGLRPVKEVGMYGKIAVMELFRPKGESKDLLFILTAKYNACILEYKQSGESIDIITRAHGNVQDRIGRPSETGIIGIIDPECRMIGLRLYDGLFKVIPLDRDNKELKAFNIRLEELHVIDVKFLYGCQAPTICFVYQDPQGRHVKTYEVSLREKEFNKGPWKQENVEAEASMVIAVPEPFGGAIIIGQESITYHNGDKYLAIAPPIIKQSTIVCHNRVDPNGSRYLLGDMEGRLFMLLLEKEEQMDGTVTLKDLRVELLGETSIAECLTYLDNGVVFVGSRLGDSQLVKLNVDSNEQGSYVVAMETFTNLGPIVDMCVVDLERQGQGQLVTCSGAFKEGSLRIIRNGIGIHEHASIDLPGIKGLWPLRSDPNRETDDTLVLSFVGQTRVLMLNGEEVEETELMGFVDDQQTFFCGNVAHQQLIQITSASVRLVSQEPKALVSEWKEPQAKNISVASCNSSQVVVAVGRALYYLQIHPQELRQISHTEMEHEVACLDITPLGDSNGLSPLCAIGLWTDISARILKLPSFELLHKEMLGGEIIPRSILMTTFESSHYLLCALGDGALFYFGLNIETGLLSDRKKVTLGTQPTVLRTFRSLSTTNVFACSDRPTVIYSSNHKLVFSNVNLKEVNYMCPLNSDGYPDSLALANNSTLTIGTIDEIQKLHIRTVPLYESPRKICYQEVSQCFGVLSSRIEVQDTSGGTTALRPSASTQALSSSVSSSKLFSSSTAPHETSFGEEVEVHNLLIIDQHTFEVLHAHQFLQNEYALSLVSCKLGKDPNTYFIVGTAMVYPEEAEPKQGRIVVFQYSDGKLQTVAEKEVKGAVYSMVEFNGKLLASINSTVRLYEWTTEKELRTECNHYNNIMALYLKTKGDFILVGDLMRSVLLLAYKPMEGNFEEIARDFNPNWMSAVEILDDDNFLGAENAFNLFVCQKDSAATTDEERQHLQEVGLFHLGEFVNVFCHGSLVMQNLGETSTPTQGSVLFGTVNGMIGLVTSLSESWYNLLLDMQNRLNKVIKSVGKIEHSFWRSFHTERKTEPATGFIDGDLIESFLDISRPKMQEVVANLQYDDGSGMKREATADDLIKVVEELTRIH
# Method: The ability of the molecular glue compounds of the invention to mediate the proximity of CRBN with its known neo-substrates (shown in Table 3) was assessed using AlphaLISA to detect the formation of a [neo-substrate]-[compound of formula (I)]-[CRBN/DDB1] ternary complex.
# Two types of protein solution were prepared: • neo-substrate, 40 μg/ml AlphaScreen Donor Beads (Table 3) in PBS (10 mM phosphate buffer, 137 mM NaCL, 2.7 mM KCl, pH 7.4) buffer supplemented with Tween-20 (Table 3) and 1 mM DTT, • 200 nM 6×His-CRBN/DDB1, 40 μg/ml AlphaLISA Anti-6×His Acceptor beads in PBS buffer with Tween-20 (Table 3) and 1 mM DTT.
# The prepared solutions were incubated at room temperature for 30 min and then the solution containing the donor beads was mixed with the solution containing the acceptor beads.
# The tested compounds were dispensed onto a white 384-well AlphaPlate 384 SW. DMSO was backfilled to all wells, resulting in a final DMSO content of 2%. Wells containing only DMSO served as background. Next, 10 μl of solution with donor and acceptor beads was added to the wells.
# The plate was sealed with transparent film and shaken using a VibroTurbulator for 60 sec at room temperature, level 3. The plate was then spun down shortly (10 sec, 1000 rcf, room temperature) and incubated at 25° C. for 30 min.
# The read-out was performed with PerkinElmer Enspire Multimode Plate Reader (method for AlphaLISA 384-well low volume, Filterset: λexc=680 nm, λem=615 nm).
# The results were analyzed as follows: • 1) an average of luminescence for background signal was calculated and used as a negative control; • 2) an average of the maximum measured luminescence for reference compound (Table 3) was calculated and used as an internal positive control; • 3) raw luminescence values were normalized against positive and negative controls; • 4) Normalized responses to reference molecular glue were determined.
# [3] = target: T2, GSPT1-HiBiT protein in GSPT1-HiBiT HEK293 cells (Homo sapiens, UniProt P15170+Q96SW2); assay: GSPT1 degradation assay using HiBiT system (Nano-Glo HiBiT lytic assay); assay type: cell-based; conditions: 6 hours treatment; for DC50: read-out: HiBiT lytic assay Geomean absolute DC50
# T2 construct: endogenous in cells; host or cells: HEK293 (CRISPR/Cas9 knock-in of HiBiT at the GSPT1 locus)
# T2 sequence (P15170 whole entry): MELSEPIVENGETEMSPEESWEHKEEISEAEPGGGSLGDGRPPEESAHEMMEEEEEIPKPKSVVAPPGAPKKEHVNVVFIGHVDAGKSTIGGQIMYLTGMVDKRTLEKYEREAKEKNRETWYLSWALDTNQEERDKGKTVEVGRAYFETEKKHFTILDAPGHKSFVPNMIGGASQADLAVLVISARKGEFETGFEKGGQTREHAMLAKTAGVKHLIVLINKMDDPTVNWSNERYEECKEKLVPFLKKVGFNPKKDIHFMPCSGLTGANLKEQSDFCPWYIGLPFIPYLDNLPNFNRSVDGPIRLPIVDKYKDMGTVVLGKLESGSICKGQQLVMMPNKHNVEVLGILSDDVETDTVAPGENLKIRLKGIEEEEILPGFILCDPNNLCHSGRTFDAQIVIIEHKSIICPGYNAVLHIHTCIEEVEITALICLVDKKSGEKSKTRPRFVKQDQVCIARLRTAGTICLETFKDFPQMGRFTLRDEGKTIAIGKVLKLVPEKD
# T2 sequence (Q96SW2 whole entry): as the sequence (Q96SW2 whole entry) above
# T2 sequence (Q16531 whole entry partner): as the sequence (Q16531 whole entry partner) above
# Description: The effect of selected compounds of the invention on GSPT1 protein levels was investigated, using the GSPT1-HiBiT HEK293 cell line and the Nano-Glo HiBiT degradation assay protocol below.
# GSPT1-HiBiT HEK293 cells were generated in-house using the HEK293 parental cells (ATCC, cat. no 70016364) and the CRISPR/Cas9 system. HEK293 cells were transformed with pSpCas9-BB-2A-Puro v2.0 plasmid carrying gRNA targeting the C-terminus of GSPT1 and ssODN template containing the HiBiT tag sequence with flanking homology sequences. Neon Transfection System (Thermo Fisher Scientific) was used for electroporation. HEK293 GSPT1-HiBiT cells were cultured with DMEM Glutamax (Gibco) supplemented with 10% heat inactivated FBS (Gibco). After transfection the culture medium was changed to DMEM Glutamax with 10% heat-inactivated FBS and 1% Penicillin-Streptomycin (Biowest) supplemented with Puromycin (2 μg/ml; Invivogen) for clonal selection. In order to isolate single cell clones for further validation and analysis, limiting dilution cloning in 96-well plates was performed. When the single clones reached confluency, HiBiT Lytic Assay (Promega) was performed in order to identify HiBiT positive clones. The clone selected for further studies was verified and validated using genotyping and HiBiT Blotting (Promega).
# Cells were maintained in DMEM Glutamax medium, supplemented with 1% penicillin/streptomycin and 10% Fetal Bovine Serum (FBS) at 37° C., 5% CO2. Compounds were stored frozen as 20 mM DMSO stocks.
# For the Nano-Glo HiBiT assay, cells were seeded onto 384-well white solid bottom plate at 2×10^3 cells/well in 40 μL using the Agilent BioTek MultiFlo FX Multimode Dispenser and incubated overnight. Following overnight incubation (37° C., 5% CO2) cells were treated with the test compounds and vehicle only (DMSO) control using the Echo 555 Liquid Handler. Twelve data-point compound titration curve with concentrations ranging from 10 μM to 0.03 nM was used. Final DMSO concentration was kept constant at 0.25% v/v across the assay plate. After 6 hours of incubation (37° C., 5% CO2), plates were removed from the incubator and let to equilibrate to RT. Luminescent signal detection was conducted using the Nano-Glo HiBiT Lytic Detection System (Promega, cat. nr N3050). Nano-Glo HiBiT Lytic Reagent was prepared freshly by diluting the LgBiT Protein (1:100 vol/vol) and the Nano-Glo HiBiT Lytic Substrate (1:50 vol/vol) in the relevant volume of the Nano-Glo HiBiT Lytic Buffer. 40 μL of the HiBiT Lytic Reagent was added per well, plates were shaken to facilitate lysis (350 rpm, 5 min, RT) and incubated in the dark for the following 10 min. Luminescence was read using the PHERAstar multimode plate reader (BMG LABTECH). The raw data (the relative luminescence unit values, RLU) were uploaded under the relevant protocol and analysed in CDDVault data management platform. Luminescence (RLU) values were normalized to the controls, and reported absolute DC50 values and Dmax values were calculated in CDDVault using non-linear regression and appropriate equations.
# Sequence of CRBN/DDB1 protein complex (Q96SW2 whole entry, species assumed): as the sequence (Q96SW2 whole entry) above
# Sequence of CRBN/DDB1 protein complex (Q16531 whole entry partner, species assumed): as the sequence (Q16531 whole entry partner) above
SMILES,Ki [1],activation at 1 µM [2],Dmax [3],DC50 [3]
"Cc1ccc(NC(=O)OCc2ccc3cc(C4CCC(=O)NC4=O)c(C)nc3c2)cc1Cl (centres unmarked) [Compound 4, (3-(2,6-dioxopiperidin-3-yl)-2-methylquinolin-7-yl)methyl (3-chloro-4-methylphenyl)carbamate]",500 to 1000 nM,< 10%,≥ 75%,10 to 50 nM
"Cc1nc2cc(COC(=O)Nc3cccc(C(C)(C)C)c3)ccc2cc1C1CCC(=O)NC1=O (centres unmarked) [Compound 9, (3-(2,6-dioxopiperidin-3-yl)-2-methylquinolin-7-yl)methyl (3-(tert-butyl)phenyl)carbamate]",> 1000 nM,< 10%,≥ 75%,10 to 50 nM
"Cc1nc2cc(COC(=O)Nc3ccc(C(C)(C)C)c(Cl)c3)ccc2cc1C1CCC(=O)NC1=O (centres unmarked) [Compound 10, (3-(2,6-dioxopiperidin-3-yl)-2-methylquinolin-7-yl)methyl (4-(tert-butyl)-3-chlorophenyl)carbamate]",< 500 nM,< 10%,≥ 75%,< 10 nM
"COc1ccc(NC(=O)OCc2ccc3cc(C4CCC(=O)NC4=O)c(C)nc3c2)cc1Cl (centres unmarked) [Compound 11, (3-(2,6-dioxopiperidin-3-yl)-2-methylquinolin-7-yl)methyl (3-chloro-4-methoxyphenyl)carbamate]",> 1000 nM,< 10%,≥ 75%,< 10 nM
"Cc1nc2cc(COC(=O)Nc3ccc4c(c3)OCO4)ccc2cc1C1CCC(=O)NC1=O (centres unmarked) [Compound 14, (3-(2,6-dioxopiperidin-3-yl)-2-methylquinolin-7-yl)methyl benzo[d][1,3]dioxol-5-ylcarbamate]",> 1000 nM,< 10%,≥ 75%,10 to 50 nM
"Cc1nc2cc(COC(=O)Nc3ccc(C(F)(F)F)c(Cl)c3)ccc2cc1C1CCC(=O)NC1=O (centres unmarked) [Compound 18, (3-(2,6-dioxopiperidin-3-yl)-2-methylquinolin-7-yl)methyl (3-chloro-4-(trifluoromethyl)phenyl)carbamate]",500 to 1000 nM,< 10%,≥ 75%,10 to 50 nM
"Cc1nc2cc(COC(=O)Nc3ccc(-c4ccccc4)nc3)ccc2cc1C1CCC(=O)NC1=O (centres unmarked) [Compound 20, (3-(2,6-dioxopiperidin-3-yl)-2-methylquinolin-7-yl)methyl (6-phenylpyridin-3-yl)carbamate]",< 500 nM,< 10%,≥ 75%,< 10 nM

# Other lines, results leading:
Ki [1],activation at 1 µM [2],Dmax [3],DC50 [3],SMILES
500 to 1000 nM,< 10%,–,–,"Cc1ccc(NC(=S)NCc2ccc3cc(C4CCC(=O)NC4=O)c(C)nc3c2)cc1Cl (centres unmarked) [Compound 2, 1-(3-chloro-4-methylphenyl)-3-((3-(2,6-dioxopiperidin-3-yl)-2-methylquinolin-7-yl)methyl)thiourea]"
< 500 nM,25 to 50%,–,–,"Cc1ccc(NC(=O)OCc2ccc3nc(C)c(C4CCC(=O)NC4=O)cc3c2)cc1Cl (centres unmarked) [Compound 5, (3-(2,6-dioxopiperidin-3-yl)-2-methylquinolin-6-yl)methyl (3-chloro-4-methylphenyl)carbamate]"
> 1000 nM,< 10%,≥ 75%,10 to 50 nM,"Cc1nc2cc(COC(=O)Nc3cc(OC(F)(F)F)ccc3F)ccc2cc1C1CCC(=O)NC1=O (centres unmarked) [Compound 6, (3-(2,6-dioxopiperidin-3-yl)-2-methylquinolin-7-yl)methyl (2-fluoro-5-(trifluoromethoxy)phenyl)carbamate]"
< 500 nM,< 10%,≥ 75%,< 10 nM,"Cc1nc2cc(COC(=O)Nc3ccc(C(C)(C)C)cc3)ccc2cc1C1CCC(=O)NC1=O (centres unmarked) [Compound 8, (3-(2,6-dioxopiperidin-3-yl)-2-methylquinolin-7-yl)methyl (4-(tert-butyl)phenyl)carbamate]"
> 1000 nM,< 10%,≥ 75%,10 to 50 nM,"Cc1nc2cc(COC(=O)Nc3ccc(Cl)c(Cl)c3)ccc2cc1C1CCC(=O)NC1=O (centres unmarked) [Compound 12, (3-(2,6-dioxopiperidin-3-yl)-2-methylquinolin-7-yl)methyl (3,4-dichlorophenyl)carbamate]"
> 1000 nM,< 10%,≥ 75%,< 10 nM,"Cc1nc2cc(COC(=O)Nc3ccc4c(c3)OCCO4)ccc2cc1C1CCC(=O)NC1=O (centres unmarked) [Compound 15, (3-(2,6-dioxopiperidin-3-yl)-2-methylquinolin-7-yl)methyl (2,3-dihydrobenzo[b][1,4]dioxin-6-yl)carbamate]"
< 500 nM,< 10%,≥ 75%,< 10 nM,"Cc1nc2cc(COC(=O)Nc3cc(Cl)c(C)c(CN4CCOCC4)c3)ccc2cc1C1CCC(=O)NC1=O (centres unmarked) [Compound 17, (3-(2,6-dioxopiperidin-3-yl)-2-methylquinolin-7-yl)methyl (3-chloro-4-methyl-5-(morpholinomethyl)phenyl)carbamate]"
> 1000 nM,< 10%,≥ 75%,< 10 nM,"Cc1nc2cc(COC(=O)Nc3cccc(OC(F)(F)F)c3)ccc2cc1C1CCC(=O)NC1=O (centres unmarked) [Compound 19, (3-(2,6-dioxopiperidin-3-yl)-2-methylquinolin-7-yl)methyl (3-(trifluoromethoxy)phenyl)carbamate]"
